From patent publication US9199943B2, “2-(poly-substituted aryl)-6-amino-5-halo-4-pyrimidinecarboxylic acids and their use as herbicides” (Dow AgroSciences, LLC., priority 2006, dated 2015)

Tests used:
[1] = tested on: HELAN = sunflower (Helainthus annuus); assay: General postemergence herbicidal activity, sunflower; assay type: in vivo; conditions: post-emergence, 336 h; post-emergent, 140 g ai/ha, visual score after 14 days (0 no injury, 100 complete kill)
Procedure: (§1) Seeds or nutlets of the desired test plant species were planted in Sun Gro MetroMix® 306 planting mixture, which typically has a pH of 6.0 to 6.8 and an organic matter content of about 30 percent, in plastic pots with a surface area of 64 square centimeters. When required to ensure good germination and healthy plants, a fungicide treatment and/or other chemical or physical treatment was applied. The plants were grown for 7-21 days in a greenhouse with an approximate 15 hour photoperiod which was maintained at about 23-29° C. during the day and 22-28° C. during the night. Nutrients and water were added on a regular basis and supplemental lighting was provided with overhead metal halide 1000-Watt lamps as necessary. The plants were employed for testing when they reached the first or second true leaf stage.
(§2) A weighed amount, determined by the highest rate to be tested, of each test compound was placed in a 25 mL glass vial and was dissolved in 4 mL of a 97:3 v/v (volume/volume) mixture of acetone and dimethyl sulfoxide (DMSO) to obtain concentrated stock solutions. […] The concentrated stock solutions obtained were diluted with 20 mL of an aqueous mixture containing acetone, water, isopropyl alcohol, DMSO, Atplus 411F crop oil concentrate, and Triton X-155 surfactant in a 48.5:39:10:1.5:1.0:0.02 v/v ratio to obtain spray solutions containing the highest application rates. Additional application rates were obtained by serial dilution of 12 mL of the high rate solution into a solution containing 2 mL of 97:3 v/v (volume/volume) mixture of acetone and dimethyl sulfoxide (DMSO) and 10 mL of an aqueous mixture containing acetone, water, isopropyl alcohol, DMSO, Atplus 411F crop oil concentrate, and Triton X-155 surfactant in a 48.5:39:10:1.5:1.0:0.02 v/v ratio to obtain ½×, ¼×, ⅛× and 1/16× rates of the high rate. Compound requirements are based upon a 12 mL application volume at a rate of 187 L/ha. Formulated compounds were applied to the plant material with an overhead Mandel track sprayer equipped with a 8002E nozzles calibrated to deliver 187 L/ha over an application area of 0.503 square meters at a spray height of 18 inches (43 cm) above the average plant canopy height. Control plants were sprayed in the same manner with the solvent blank.
(§3) The treated plants and control plants were placed in a greenhouse as described above and watered by sub-irrigation to prevent wash-off of the test compounds. After 14 days, the condition of the test plants as compared with that of the untreated plants was determined visually and scored on a scale of 0 to 100 percent where 0 corresponds to no injury and 100 corresponds to complete kill.
(§4) By applying the well-accepted probit analysis as described by J. Berkson in Journal of the […], 48, 565 (1953) and by D. Finney in “Probit Analysis” Cambridge University Press (1952), the above data can be used to calculate GR50 and GR80 values, which are defined as growth reduction factors that correspond to the effective dose of herbicide required to kill or control 50 percent or 80 percent, respectively, of a target plant.

[2] = tested on: CHEAL = lambsquarter (Chenopodium album); assay: General preemergence herbicidal activity, lambsquarter; assay type: in vivo; conditions: Chenopodium album, pre-emergence, 480 h; pre-emergent, 280 g ai/ha, visual score after 20-22 days
Excerpt: (§5) Seeds of the desired test plant species were planted in a soil matrix prepared by mixing a loam soil (43 percent silt, 19 percent clay, and 38 percent sand, with a pH of about 8.1 and an organic matter content of about 1.5 percent) and sand in a 70 to 30 ratio. The soil matrix was contained in plastic pots with a surface area of 113 square centimeters. When required to ensure good germination and healthy plants, a fungicide treatment and/or other chemical or physical treatment was applied. A weighed amount, determined by the highest rate to be tested, of each test compound was placed in a 25 mL glass vial and was dissolved in 6 mL of a 97:3 v/v (volume/volume) mixture of acetone and DMSO to obtain concentrated stock solutions. […] The stock solutions obtained were diluted with 18 mL of a 0.1% v/v aqueous solution of Tween® 20 surfactant to obtain spray solutions containing the highest application rate. Additional application rates were obtained by serial dilution of 12 mL of the high rate solution into a solution containing 3 mL of 97:3 v/v mixture of acetone and DMSO and 9 mL of the 0.1% v/v aqueous solution of Tween® 20 surfactant to obtain 1⁄2×, 1⁄4×, 1⁄8× and 1/16× rates of the high rate. Compound requirements are based upon a 12 mL application volume at a rate of 187 L/ha. Formulated compounds were applied to the plant material with an overhead Mandel track sprayer equipped with a […] nozzles calibrated to deliver 187 L/ha over an application area of 0.503 square meters at a spray height of 18 inches (43 cm) above the soil surface. Control plants were sprayed in the same manner with the solvent blank. The treated pots and control pots were placed in a greenhouse maintained with an approximate 15 hour photoperiod and temperatures of about 23-29° C. during the day and 22-28° C. during the night. Nutrients and water were added on a regular basis and supplemental lighting was provided with overhead metal halide 1000-Watt lamps as necessary. The water was added by top-irrigation. After 20-22 days, the condition of the test plants that germinated and grew as compared with that of the untreated plants that emerged and grew was determined visually and scored on a scale of 0 to 100 percent where 0 corresponds to no injury and 100 corresponds to complete kill or no emergence.

[3] = tested on: ABUTH = velvetleaf (Abutilon theophrasti); assay: General postemergence herbicidal activity, velvetleaf; assay type: in vivo; conditions: Abutilon theophrasti, post-emergence, 336 h; post-emergent, 140 g ai/ha, visual score after 14 days (0 no injury, 100 complete kill)
Procedure: as §1, §2, §3, §4

[4] = tested on: CHEAL = lambsquarter (Chenopodium album); assay: General postemergence herbicidal activity, lambsquarter; assay type: in vivo; conditions: Chenopodium album, post-emergence, 336 h; post-emergent, 140 g ai/ha, visual score after 14 days (0 no injury, 100 complete kill)
Procedure: as §1, §2, §3, §4

[5] = tested on: ABUTH = velvetleaf (Abutilon theophrasti); assay: General preemergence herbicidal activity, velvetleaf; assay type: in vivo; conditions: Abutilon theophrasti, pre-emergence, 480 h; pre-emergent, 280 g ai/ha, visual score after 20-22 days
Excerpt: as §5

[6] = tested on: HELAN = sunflower (Helianthus annuus); assay: General preemergence herbicidal activity, sunflower; assay type: in vivo; conditions: Helianthus annuus, pre-emergence, 480 h; pre-emergent, 280 g ai/ha, visual score after 20-22 days
Excerpt: as §5

melting point: 132 to 134 °C
SMILES: CCOc1c(Cl)ccc(-c2nc(N)c(Cl)c(C(=O)O)n2)c1F [Compound 19, 6-Amino-5-chloro-2-(4-chloro-3-ethoxy-2-fluorophenyl)pyrimidine-4-carboxylic acid]
pest or weed control at 140 g/ha [1]: 95% | pest or weed control at 280 g/ha [2]: 75% | pest or weed control at 140 g/ha [3]: 95% | pest or weed control at 140 g/ha [4]: 90% | pest or weed control at 280 g/ha [5]: 80% | pest or weed control at 280 g/ha [6]: 90%
